Measured values reported in patent publication US20040024055A1, “Pharmaceutical composition containing the exract of saururus chinensis baill useful as an anticancer agent and a process for the preparation thereof” (priority 2000, published 2004).
In brackets after ≈: the same amount, converted by molar mass.

Tests used:
[1] = test system: HS27; assay: MTT analysis, cytotoxicity against normal cell line; format: cell-based, human; conditions: 10 μg/ml sample
[2] = test system: Hep-2; assay: MTT analysis, anticancer activity; format: cell-based, human; conditions: MTT, 48 hr
[3] = test system: NIH-3T3; assay: MTT analysis, cytotoxicity against normal cell line; format: cell-based, mouse; conditions: 10 μg/ml sample
[4] = test system: HT-29; assay: MTT analysis, anticancer activity; format: cell-based, human; conditions: 10 μg/ml sample
[5] = test system: HS683; assay: MTT analysis, anticancer activity; format: cell-based, human; conditions: 48 hr
[6] = test system: SK-MEL-28; assay: MTT analysis, anticancer activity; format: cell-based, human; conditions: 48 hr
[7] = test system: CHO; assay: MTT analysis, cytotoxicity against normal cell line; format: cell-based, Chinese hamster; conditions: 10 μg/ml sample
[8] = test system: KATO-III; assay: MTT analysis, anticancer activity; format: cell-based, human; conditions: MTT, 48 hr
[9] = test system: MCF-7; assay: MTT analysis, anticancer activity; format: cell-based, human; conditions: MTT, 48 hr
[10] = test system: HT1080; assay: MTT analysis, anticancer activity; format: cell-based, human; conditions: 48 hr
[11] = test system: A431; assay: MTT analysis, anticancer activity; format: cell-based, human; conditions: 48 hr
[12] = test system: SK-OV-3; assay: MTT analysis, anticancer activity; format: cell-based, human; conditions: 10 μg/ml sample
[13] = test system: mouse; conditions: intraperitoneal, Rao et al.; cited from earlier work
[14] = test system: BT-20; assay: MTT analysis, anticancer activity; format: cell-based, human; conditions: 48 hr
[15] = test system: DU-145 prostate cancer cell line; assay: MTT analysis, anticancer activity; format: cell-based, human; conditions: 48 hr
Description: (§1) To be specific, SK-Hep-1 cell, which is liver cancer cell line, was added to 96-well microplate (Falcon, USA) with the concentration of 3×10^5 cells/ml by 100 μl per well. Each extracted and separated substance dissolved in DMSO was added to the well by 100 μl for the final concentration to be from 50 μg/ml to 0.0244 μg/ml, with 200 μl of final volume. Each cell was cultured for 48 hr in a culture medium of 37° C. and 5% CO2. After cultivation, 20 μl of phosphate buffer solution containing 5 mg/ml of MTT (3-[4,5-dimethylthiazol-2-yl]-2,5-diphenyltetrazoliumbromide, Sigma Co.) reagent was added to each well, and then cultured for 4 hr. After taking 100 μl of supernant from each culture medium, 100 μl of 0.04N hydrochloric acid-isopropanol was added. After letting alone overnight, absorbance was measured at 560 nm using automatic Eliza detector (Molecular Divices Corp., USA). Anticancer activity of each extracted and separated substance was calculated from the absorbance value by Equation 1 and was expressed in terms of cell.
(§2) Average Existence Rate(%)=(Absorbance of Treated Group)/(Absorbance of Control Group)×100

[16] = test system: 3T3-L1; assay: MTT analysis, cytotoxicity against normal cell line; format: cell-based, mouse; conditions: 10 μg/ml sample
[17] = test system: HS-746T; assay: MTT analysis, anticancer activity; format: cell-based, human; conditions: 10 μg/ml sample
[18] = Solubility; format: physicochemical
[19] = test system: LoVo; assay: MTT analysis, anticancer activity; format: cell-based, human; conditions: 10 μg/ml sample
[20] = test system: 293; assay: MTT analysis, cytotoxicity against normal cell line; format: cell-based, human; conditions: 10 μg/ml sample
[21] = test system: SK-N-SH; assay: MTT analysis, anticancer activity; format: cell-based, human; conditions: 48 hr
[22] = test system: SK-BR-3; assay: MTT analysis, anticancer activity; format: cell-based, human; conditions: 48 hr
[23] = test system: mouse; conditions: reported by Rao et al.; cited from earlier work
[24] = test system: ME-180; assay: MTT analysis, anticancer activity; format: cell-based, human; conditions: 10 μg/ml sample
[25] = test system: CPAE; assay: MTT analysis, cytotoxicity against normal cell line; format: cell-based, bovine; conditions: 10 μg/ml sample
[26] = test system: NCI-H69; assay: MTT analysis, anticancer activity; format: cell-based, human; conditions: 10 μg/ml sample
[27] = test system: BT-549; assay: MTT analysis, anticancer activity; format: cell-based, human; conditions: 10 μg/ml sample
[28] = test system: T98G; assay: MTT analysis, anticancer activity; format: cell-based, human; conditions: 48 hr
[29] = test system: SK-Hep-1 liver cancer cell line; assay: MTT analysis, anticancer activity; format: cell-based, human; conditions: 48 hr
Description: as §1, §2

[30] = test system: HeLa; assay: MTT analysis, anticancer activity; format: cell-based, human; conditions: 48 hr
[31] = test system: PC-3 prostate cancer cell line; assay: MTT analysis, anticancer activity; format: cell-based, human; conditions: 48 hr
Description: as §1, §2

[32] = test system: HS-578T; assay: MTT analysis, anticancer activity; format: cell-based, human; conditions: 10 μg/ml sample
[33] = test system: T-47D; assay: MTT analysis, anticancer activity; format: cell-based, human; conditions: 48 hr

## COc1ccc(C(O)C(C)Oc2ccc(C3OC(c4ccc(OC(C)[C@@H](O)c5ccc(OC)c(OC)c5)c(OC)c4)C(C)C3C)cc2OC)cc1OC (single isomer, unassigned) [HNP-98701C, manassantin A]
[1]
  Existence rate class, HS27 (in IC50 table): N.E. (Not effective; existence rate larger than 90% for 10 μg/ml sample)
[2]
  IC50 Hep-2: 0.0367 µg/mL (≈ 0.0501 µM)
[3]
  Existence rate class, NIH-3T3 (in IC50 table): N.E. (Not effective; existence rate larger than 90% for 10 μg/ml sample)
[4]
  Existence rate class, HT-29 (in IC50 table): * (Existence rate larger than 60% for 10 μg/ml sample)
[5]
  IC50 HS683: 0.2170 µg/mL (≈ 0.296 µM)
[6]
  IC50 SK-MEL-28: 0.0725 µg/mL (≈ 0.0989 µM)
[7]
  Existence rate class, CHO (in IC50 table): * (Existence rate larger than 60% for 10 μg/ml sample)
[8]
  IC50 KATO-III: 0.7005 µg/mL (≈ 0.956 µM)
[9]
  IC50 MCF-7: >10 µg/mL
[10]
  IC50 HT1080: 0.1753 µg/mL (≈ 0.239 µM)
[11]
  IC50 A431: 0.3860 µg/mL (≈ 0.527 µM)
[12]
  Existence rate class, SK-OV-3 (in IC50 table): N.E. (Not effective; existence rate larger than 90% for 10 μg/ml sample)
[13]
  spontaneous movement 50% reduction concentration (IC50): 0.21 ± 0.02 mg/kg
[14]
  IC50 BT-20: 0.0629 µg/mL (≈ 0.0858 µM)
[15]
  IC50 DU-145: 0.0263 µg/mL (≈ 0.0359 µM)
[16]
  Existence rate class, 3T3-L1 (in IC50 table): N.E. (Not effective; existence rate larger than 90% for 10 μg/ml sample)
[17]
  Existence rate class, HS-746T (in IC50 table): * (Existence rate larger than 60% for 10 μg/ml sample)
[18]
  Solubility in methanol, ethanol, ethyl acetate, chloroform and dimethylsulfoxide (DMSO): highly soluble
  Solubility in water, acetone, ether and hexane: insoluble
[19]
  Existence rate class, LoVo (in IC50 table): * (Existence rate larger than 60% for 10 μg/ml sample)
[20]
  Existence rate class, 293 (in IC50 table): * (Existence rate larger than 60% for 10 μg/ml sample)
[21]
  IC50 SK-N-SH: 0.5392 µg/mL (≈ 0.736 µM)
[22]
  IC50 SK-BR-3: 0.0632 µg/mL (≈ 0.0862 µM)
[23]
  50% lethal dose (LD50): 5.2 mg/kg
[24]
  Existence rate class, ME-180 (in IC50 table): * (Existence rate larger than 60% for 10 μg/ml sample)
[25]
  Existence rate class, CPAE (in IC50 table): * (Existence rate larger than 60% for 10 μg/ml sample)
[26]
  Existence rate class, NCI-H69 (in IC50 table): * (Existence rate larger than 60% for 10 μg/ml sample)
[27]
  Existence rate class, BT-549 (in IC50 table): * (Existence rate larger than 60% for 10 μg/ml sample)
[28]
  IC50 T98G: 0.1014 µg/mL (≈ 0.138 µM)
[29]
  IC50 SK-Hep-1: 0.0560 µg/mL (≈ 0.0764 µM)
[30]
  IC50 HeLa: 0.1838 µg/mL (≈ 0.251 µM)
[31]
  IC50 PC-3: 0.0446 µg/mL (≈ 0.0609 µM)
[32]
  Existence rate class, HS-578T (in IC50 table): N.E. (Not effective; existence rate larger than 90% for 10 μg/ml sample)
[33]
  IC50 T-47D: 0.1249 µg/mL (≈ 0.17 µM)
